Assay results published in patent publication US20030206968A1, “Fungicidal mixtures” (priority 1999, published 2003).

Columns and labels:
Format in all cases: in vivo
Erysiphe cichoracearum = experiment: Greenhouse, Erysiphe cichoracearum on cucumbers, 1 day residual
Experimental: (§1) The trials are carried out under greenhouse (Examples 1 to 32) or field conditions (Examples 33 to 40) in residual or curative applications. The fungicides are applied in single treatments, or in a combination comprising an azolopyrimidine of formula I and a compound selected from the classes (A), (B) and (C) as defined above. The compounds are applied in form of an aqueous spray mix obtained from a concentrated formulation or the technical material.
(§2) 1. Seed is planted in 6 cm diameter plastic pots and maintained in the greenhouse.
(§3) 2. When the primary leaf is fully expanded in the case of cereals or several leaves are present in the case of dicots, formulated test compounds are sprayed with a three nozzle overhead fungicide sprayer to near run-off. Alternatively, a single nozzle overhead track sprayer is used for application of the compounds to cereals at a rate of 200 l/ha. Plants are then allowed to air-dry.
(§4) 3. Inoculation precedes treatment in the case of curative evaluations and follows treatment in case of residual evaluations. For inoculation of powdery mildew disease, plants are set up on greenhouse benches with bottom watering mats and inoculated by dusting them with conidia from infected plants. Between inoculation and treatment for curative evaluations and between treatment and inoculation for residual evaluations, plants are maintained in the greenhouse with bottom watering.
(§5) 4. Disease on the foliage as percent leaf area with disease symptoms/signs is evaluated about 7 days after inoculation. In the case of wheat, the tips and bases of the leaves are excluded from the evaluation. [formula]
(§6) 1. Technical compounds are formulated in a solvent/surfactant system consisting of 5% acetone and 0.05% Tween 20 in deionized water. Compounds are dissolved in acetone prior to addition of the water; the Tween 20 can be added through either the acetone or the water. Dilutions are made using the solvent/surfactant system. Formulated compounds are prepared using deionized water.
(§7) 2. Two kinds of controls are included: Plants treated with the solvent/surfactant solution and inoculated (Solvent Blank). Untreated plants which are inoculated (Inoculated Control).
(§8) Assessments of the diseases took place at the indicated day after the application of the compounds. Per cent infected leaf area infected was evaluated. The efficacy of the compounds/compounds mixtures to control the diseases was calculated by using the formula given above under item 4: […]
(§9) Synergy was calculated using the % disease control values of specific treatments for the two COLBY formula given hereinabove
Fungicidal efficacy of the mixture of Azolopyrimidine C+triforine (1 day residual) against Erysiphe cichoracearum on cucumbers
the tank mix was obtained from a SC formulation containing 100 g of Azolopyrimidine C per liter and an DC formulation containing and 190 g of triforine per liter.
Fungicidal efficacy of the mixture of Azolopyrimidine C+cyprodinil (1 day residual) against Erysiphe cichoracearum on cucumbers The tank mix was obtained from a SC formulation containing 100 g of Azolopyrimidine C per liter and a WG formulation containing and 750 g of cyprodinil per kg.

Alternaria solani = experiment: Greenhouse, Alternaria solani on tomatoes, 1 day residual; conditions: Example 25; rate 16 g/ha
Experimental: as §1, §2, §3, §4
(§10) For inoculation of non-powdery mildew diseases, an aqueous spore suspension of the pathogen is applied to the plant and the plants are kept 1-2 days in a moist infection chamber before being returned to the greenhouse where they are maintained by bottom watering.
as §5, §6, §7, §8, §9
Fungicidal efficacy of the mixture of Azolopyrimidine C and different fungicides (1 day residual) against Alternaria solani on tomatoes The tank mix was obtained from an SC formulation containing 100 g Azolopyrimidine A per liter and WP formulations of dithianon (750 g/kg), captan (500 g/kg), cyprodinil (750 g/kg), mancozeb (800 g/kg), or a SC formulation of chlorothalonil (500 g/l), or a FS formulation of fenpiclonil (400 g/l), spectively.

Blumeria graminis [1] = experiment: Greenhouse, Blumeria graminis on wheat, 2 days curative; conditions: Example 27
Experimental: as §1, §2, §3, §4, §5, §6, §7, §8, §9
Fungicidal efficacy of the mixture of (S)-Azolopyrimidine C in admixture with Azoxystrobin or Trifloxystrobin (2 days curative) against Blumeria graminis on wheat. The tank mixes were obtained from technical material of (S)-Azolopyrimidine C and Azoxystrobin or Trifloxystrobin.

Blumeria graminis [2] = experiment: Greenhouse, Blumeria graminis on barley, 4 days residual; conditions: Example 32
Experimental: as §1, §2, §3, §4, §5, §6, §7, §8, §9
Fungicidal efficacy of the mixture of (S)-Azolopyrimidine C in admixture with Azoxystrobin (4 days residual) against Blumeria graminis on barley. The tank mixes were obtained from technical material of (S)-Azolopyrimidine C and Azoxystrobin.

Blumeria graminis [3] = experiment: Field test, Blumeria graminis on wheat; conditions: 17 days after application
Experimental: as §1
For the field study formulated Azolopyrimidine A, B or C and formulated compounds from the classes (A), (B) and (C) were used.
as §8, §9
The compounds are applied according to good agricultural practice in the form of an aqueous spray mix obtained from a concentrated formulation or the technical material at a rate of 400 l/ha. The disease control is evaluated according to the formula given for the greenhouse tests.
(§11) Fungicidal efficacy of the mixture of (S)-Azolopyrimidine C+cyproconazole in the field against Blumeria graminis on wheat 17 days after application The tank mix was obtained from a SC formulation containing 100 g (S)-Azolopyrimidine C per liter and an EC formulation containing 60 g cyproconazole per liter.
as §11, with “C+azoxystrobin” for “C+cyproconazole”, “a SC” for “an EC”, “250” for “60”, “azoxystrobin” for “cyproconazole”, “kg.” for “liter.”
Fungicidal efficacy of the mixture of Azolopyrimidine A and different cereal fungicides in the field against Blumeria graminis on wheat 15 days after application The tank mix was obtained from an SC formulation containing 100 g Azolopyrimidine A per liter and commercially available formulations of metconazole, epoxiconazole or kresoxim methyl, respectively.

Blumeria graminis [4] = experiment: Greenhouse, Blumeria graminis on wheat, 4 days residual; conditions: Example 30
Experimental: as §1, §2, §3, §4, §5, §6, §7, §8, §9
Fungicidal efficacy of the mixture of (S)-Azolopyrimidine C in admixture with Azoxystrobin or Trifloxystrobin (4 days residual) against Blumeria graminis on wheat. The tank mixes were obtained from technical material of (S)-Azolopyrimidine C and Azoxystrobin or Trifloxystrobin.

Puccinia recondita [5] = experiment: Greenhouse, Puccinia recondita on wheat, 2 days curative; conditions: Example 28
Experimental: as §1, §2, §3, §4, §10, §5, §6, §7, §8, §9
Fungicidal efficacy of the mixture of (S)-Azolopyrimidine C in admixture with Azoxystrobin or Trifloxystrobin (2 days curative) against Puccinia recondita on wheat. The tank mixes were obtained from technical material of (S)-Azolopyrimidine C and Azoxystrobin or Trifloxystrobin.

Puccinia recondita [6] = experiment: Greenhouse, Puccinia recondita on wheat, 4 days residual; conditions: Example 31
Experimental: as §1, §2, §3, §4, §10, §5, §6, §7, §8, §9
Fungicidal efficacy of the mixture of (S)-Azolopyrimidine C in admixture with Azoxystrobin or Trifloxystrobin (4 days residual) against Puccinia recondita on wheat. The tank mixes were obtained from technical material of (S)-Azolopyrimidine C and Azoxystrobin or Trifloxystrobin.

Blumeria graminis [7] = experiment: Greenhouse, Blumeria graminis on barley, 2 days curative; conditions: Example 29
Experimental: as §1, §2, §3, §4, §5, §6, §7, §8, §9
Fungicidal efficacy of the mixture of (S)-Azolopyrimidine C in admixture with Fenhexamid (2 days curative) against Blumeria graminis on barley. The tank mixes were obtained from technical material of (S)-Azolopyrimidine C and Fenhexamid.
Fungicidal efficacy of the mixture of (S)-Azolopyrimidine C in admixture with Azoxystrobin or Trifloxystrobin (2 days curative) against Blumeria graminis on barley. The tank mixes were obtained from technical material of (S)-Azolopyrimidine C and Azoxystrobin or Trifloxystrobin.

Botrytis cinerea = experiment: Apple fruit Botrytis test, Botrytis cinerea on apple fruits, 3 day residual; conditions: Example 5
Experimental: 1. Apples (Malus X domestica Borkh.) variety Golden Delicious are disinfected by washing them briefly in 70% ethanol. After drying the apples are marked with four short equal-distant lines indicating the positions to be wounded.
2. Corresponding with the marks, four holes are poked around the apple equator with a pipette tip. 10 μl of the treatment solution are pipetted into each hole.
3. Three hours after application, 10 μl of a conidial suspension of Botrytis cinerea are pipetted into each. For incubation, the treated/inoculated apples are set up for five days.
4. Disease occurs as rotten apple tissue surrounding the inoculated wounds. The diameter of the rotten zone around each wound is measured.
1. Technical compounds are formulated in a solvent system consisting of 5% acetone and 0.05% Tween 20 in deionized water. Compounds are dissolved in acetone prior to dilution with water. Formulated compounds are prepared using deionized water.
2. Three kinds of controls are included:
Assessments of the diseases took place at the indicated day after the application of the compounds. Per cent infected leaf area infected was evaluated. The efficacy of the compounds/compounds mixtures to control the diseases was calculated by using the formula: [formula]
as §9
Fungicidal efficacy of the mixture of Azolopyrimidine A+vinclozolin (3 day residual) against Botrytis cinerea on apple fruits The tank mix was obtained from technical material of Azolopyrimidine A and a WG formulation containing 500 g vinclozolin per kg.
Fungicidal efficacy of the mixture of Azolopyrimidine A+cyprodinil (3 day residual) against Botrytis cinerea on apple fruits The tank mix was obtained from technical material of Azolopyrimidine A and a WG formulation containing 750 g cyprodinil per kg.
Fungicidal efficacy of the mixture of Azolopyrimidine A+benomyl (3 day residual) against Botrytis cinerea on apple fruits The tank mix was obtained from technical material of Azolopyrimidine A and a WP formulation containing 500 g benomyl per kg.

Leptosphaeria nodorum = experiment: Greenhouse, Leptosphaeria nodorum on wheat, 3 day residual; conditions: Example 1
Experimental: as §1, §2, §3, §4, §10, §5, §6, §7, §8, §9
Fungicidal efficacy of the mixture of Azolopyrimidine A+fenpropimorph (3 day residual) against Leptosphaeria nodorum on wheat The tank mix was obtained from technical material of Azolopyrimidine A and an EC formulation containing 750 g fenpropimorph per liter.
Fungicidal efficacy of the mixture of Azolopyrimidine A+tebuconazole (3 day residual) against Leptosphaeria nodorum on wheat The tank mix was obtained from technical material of Azolopyrimidine A and an EC formulation containing 250 g tebuconazole per liter.

## O=CNC(N1CCN(C(NC=O)C(Cl)(Cl)Cl)CC1)C(Cl)(Cl)Cl (centres unmarked) [triforine]
Erysiphe cichoracearum; Example 23, dose rate 4 ppm
  Observed Efficacy: 0%
Erysiphe cichoracearum; Example 23, dose rate 16 ppm
  Observed Efficacy: 15%

## N#Cc1sc2c(=O)c3ccccc3c(=O)c=2sc1C#N [dithianon]
Alternaria solani
  Observed Efficacy: 50%

## CO/C=C(/C(=O)OC)c1ccccc1Oc1cc(Oc2ccccc2C#N)ncn1 [Azoxystrobin]
Blumeria graminis [1]; dose rate 1.6 ppm
  Observed Efficacy: 0%
Blumeria graminis [1]; dose rate 3.1 ppm
  Observed Efficacy: 2%
Blumeria graminis [1]; dose rate 6.3 ppm
  Observed Efficacy: 21%
Blumeria graminis [1]; dose rate 12.5 ppm
  Observed Efficacy: 28%
Blumeria graminis [1]; dose rate 25 ppm
  Observed Efficacy: 48%
Blumeria graminis [1]; dose rate 50 ppm
  Observed Efficacy: 61%
Blumeria graminis [2]; dose rate 1.6 ppm
  Observed Efficacy: 0%
Blumeria graminis [2]; dose rate 3.1 ppm
  Observed Efficacy: 3%
Blumeria graminis [2]; dose rate 6.3 ppm
  Observed Efficacy: 3%
Blumeria graminis [2]; dose rate 12.5 ppm
  Observed Efficacy: 3%
Blumeria graminis [2]; dose rate 25 ppm
  Observed Efficacy: 2%
Blumeria graminis [2]; dose rate 50 ppm
  Observed Efficacy: 9%
Blumeria graminis [3]; azoxystrobin 75 g/ha alone
  Observed Efficacy: 49
Blumeria graminis [4]; dose rate 3.1 ppm
  Observed Efficacy: 0%
Blumeria graminis [4]; dose rate 6.3 ppm
  Observed Efficacy: 0%
Blumeria graminis [4]; dose rate 12.5 ppm
  Observed Efficacy: 7%
Blumeria graminis [4]; dose rate 25 ppm
  Observed Efficacy: 9%
Blumeria graminis [4]; dose rate 50 ppm
  Observed Efficacy: 9%
Puccinia recondita [5]; dose rate 1.6 ppm
  Observed Efficacy: 0%
Puccinia recondita [5]; dose rate 3.1 ppm
  Observed Efficacy: 25%
Puccinia recondita [5]; dose rate 6.3 ppm
  Observed Efficacy: 48%
Puccinia recondita [5]; dose rate 12.5 ppm
  Observed Efficacy: 85%
Puccinia recondita [5]; dose rate 25 ppm
  Observed Efficacy: 95%
Puccinia recondita [6]; dose rate 3.1 ppm
  Observed Efficacy: 0%
Puccinia recondita [6]; dose rate 6.3 ppm
  Observed Efficacy: 0%
Puccinia recondita [6]; dose rate 12.5 ppm
  Observed Efficacy: 0%
Puccinia recondita [6]; dose rate 25 ppm
  Observed Efficacy: 0%
Puccinia recondita [6]; dose rate 50 ppm
  Observed Efficacy: 8%
Blumeria graminis [7]; dose rate 1.6 ppm
  Observed Efficacy: 0%
Blumeria graminis [7]; dose rate 3.1 ppm
  Observed Efficacy: 10%
Blumeria graminis [7]; dose rate 6.3 ppm
  Observed Efficacy: 21%
Blumeria graminis [7]; dose rate 12.5 ppm
  Observed Efficacy: 49%
Blumeria graminis [7]; dose rate 25 ppm
  Observed Efficacy: 73%
Blumeria graminis [7]; dose rate 50 ppm
  Observed Efficacy: 87%

## O=C1C2CC=CCC2C(=O)N1SC(Cl)(Cl)Cl (centres unmarked) [captan]
Alternaria solani
  Observed Efficacy: 18%

## Cc1cc(C2CC2)nc(Nc2ccccc2)n1 [cyprodinil]
Alternaria solani
  Observed Efficacy: 13%
Botrytis cinerea; dose rate 0.1 ppm
  Observed Efficacy: 2%
Botrytis cinerea; dose rate 1 ppm
  Observed Efficacy: 46%
Erysiphe cichoracearum; Example 24, dose rate 4 ppm
  Observed Efficacy: 0%
Erysiphe cichoracearum; Example 24, dose rate 16 ppm
  Observed Efficacy: 29%

## mancozeb
Alternaria solani
  Observed Efficacy: 27%

## CC(Cc1ccc(C(C)(C)C)cc1)CN1C[C@@H](C)O[C@@H](C)C1 (some centres unmarked) [fenpropimorph]
Leptosphaeria nodorum; dose rate 0.5 ppm
  Observed Efficacy: 19%
Leptosphaeria nodorum; dose rate 5 ppm
  Observed Efficacy: 15%

## CC(C1CC1)C(O)(Cn1cncn1)c1ccc(Cl)cc1 (centres unmarked) [cyproconazole]
Blumeria graminis [3]; cyproconazole 15 g/ha alone
  Observed Efficacy: 86
Blumeria graminis [3]; cyproconazole 30 g/ha alone
  Observed Efficacy: 82

## N#Cc1c[nH]cc1-c1cccc(Cl)c1Cl [fenpiclonil]
Alternaria solani
  Observed Efficacy: 76%

## N#Cc1c(Cl)c(Cl)c(Cl)c(C#N)c1Cl [chlorothalonil]
Alternaria solani
  Observed Efficacy: 13%
